# Data reported in ChEMBL document CHEMBL1154884, “Synthesis and biological evaluation of triazol-4-ylphenyl-bearing histone deacetylase inhibitors as anticancer agents” (J Med Chem, 2010).
# Experiments:
# Histone deacetylase 2 = Histone deacetylase 2 (Homo sapiens, UniProt Q92769)
# Description: Inhibition of HDAC2 assessed as blockade of decorboxylation of carboxyfluorescein labeled acetylated peptide substrate after 17 hrs
# Histone deacetylase 1 = Histone deacetylase 1 (Homo sapiens, UniProt Q13547)
# Description: Inhibition of HDAC1 assessed as blockade of decorboxylation of carboxyfluorescein labeled acetylated peptide substrate after 17 hrs
# Histone deacetylase 8 = molecular target: T1, Histone deacetylase 8 (Homo sapiens, UniProt Q9BY41)
# T1 sequence (Q9BY41 whole entry): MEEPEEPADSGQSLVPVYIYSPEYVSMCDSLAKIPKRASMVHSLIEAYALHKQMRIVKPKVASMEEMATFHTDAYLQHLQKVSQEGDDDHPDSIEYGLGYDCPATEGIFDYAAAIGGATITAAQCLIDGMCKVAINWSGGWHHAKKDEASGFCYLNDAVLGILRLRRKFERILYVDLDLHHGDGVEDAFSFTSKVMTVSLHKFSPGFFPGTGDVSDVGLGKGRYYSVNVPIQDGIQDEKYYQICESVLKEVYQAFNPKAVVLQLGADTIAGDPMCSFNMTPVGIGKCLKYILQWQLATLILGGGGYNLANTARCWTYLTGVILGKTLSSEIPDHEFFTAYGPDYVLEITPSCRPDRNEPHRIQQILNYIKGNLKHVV
# Description: Inhibition of HDAC8 assessed as blockade of decorboxylation of carboxyfluorescein labeled acetylated peptide substrate after 17 hrs
# [1] = molecular target: T2, Polyamine deacetylase HDAC10 (Homo sapiens, UniProt Q969S8)
# T2 sequence (Q969S8 whole entry): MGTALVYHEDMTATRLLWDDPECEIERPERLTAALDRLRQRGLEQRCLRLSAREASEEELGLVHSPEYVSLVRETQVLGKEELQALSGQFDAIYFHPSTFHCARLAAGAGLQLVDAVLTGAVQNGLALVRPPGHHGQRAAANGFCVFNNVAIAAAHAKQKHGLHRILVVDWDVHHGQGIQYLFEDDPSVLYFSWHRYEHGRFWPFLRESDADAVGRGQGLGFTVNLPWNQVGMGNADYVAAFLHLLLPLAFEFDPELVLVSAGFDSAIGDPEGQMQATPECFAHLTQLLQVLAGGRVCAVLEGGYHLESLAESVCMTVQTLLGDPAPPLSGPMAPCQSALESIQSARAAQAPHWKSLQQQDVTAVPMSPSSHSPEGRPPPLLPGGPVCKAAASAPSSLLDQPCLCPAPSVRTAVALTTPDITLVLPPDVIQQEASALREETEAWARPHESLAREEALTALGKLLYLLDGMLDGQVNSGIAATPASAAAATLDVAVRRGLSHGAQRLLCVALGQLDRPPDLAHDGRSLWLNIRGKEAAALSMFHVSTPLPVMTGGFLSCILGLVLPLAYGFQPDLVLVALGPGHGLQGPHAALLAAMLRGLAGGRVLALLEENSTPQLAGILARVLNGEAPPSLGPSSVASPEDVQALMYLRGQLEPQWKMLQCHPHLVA
# Description: Inhibition of HDAC10 assessed as blockade of decorboxylation of carboxyfluorescein labeled acetylated peptide substrate after 17 hrs
# [2] = molecular target: T3, Protein deacetylase HDAC6 (Homo sapiens, UniProt Q9UBN7)
# T3 sequence (Q9UBN7 whole entry): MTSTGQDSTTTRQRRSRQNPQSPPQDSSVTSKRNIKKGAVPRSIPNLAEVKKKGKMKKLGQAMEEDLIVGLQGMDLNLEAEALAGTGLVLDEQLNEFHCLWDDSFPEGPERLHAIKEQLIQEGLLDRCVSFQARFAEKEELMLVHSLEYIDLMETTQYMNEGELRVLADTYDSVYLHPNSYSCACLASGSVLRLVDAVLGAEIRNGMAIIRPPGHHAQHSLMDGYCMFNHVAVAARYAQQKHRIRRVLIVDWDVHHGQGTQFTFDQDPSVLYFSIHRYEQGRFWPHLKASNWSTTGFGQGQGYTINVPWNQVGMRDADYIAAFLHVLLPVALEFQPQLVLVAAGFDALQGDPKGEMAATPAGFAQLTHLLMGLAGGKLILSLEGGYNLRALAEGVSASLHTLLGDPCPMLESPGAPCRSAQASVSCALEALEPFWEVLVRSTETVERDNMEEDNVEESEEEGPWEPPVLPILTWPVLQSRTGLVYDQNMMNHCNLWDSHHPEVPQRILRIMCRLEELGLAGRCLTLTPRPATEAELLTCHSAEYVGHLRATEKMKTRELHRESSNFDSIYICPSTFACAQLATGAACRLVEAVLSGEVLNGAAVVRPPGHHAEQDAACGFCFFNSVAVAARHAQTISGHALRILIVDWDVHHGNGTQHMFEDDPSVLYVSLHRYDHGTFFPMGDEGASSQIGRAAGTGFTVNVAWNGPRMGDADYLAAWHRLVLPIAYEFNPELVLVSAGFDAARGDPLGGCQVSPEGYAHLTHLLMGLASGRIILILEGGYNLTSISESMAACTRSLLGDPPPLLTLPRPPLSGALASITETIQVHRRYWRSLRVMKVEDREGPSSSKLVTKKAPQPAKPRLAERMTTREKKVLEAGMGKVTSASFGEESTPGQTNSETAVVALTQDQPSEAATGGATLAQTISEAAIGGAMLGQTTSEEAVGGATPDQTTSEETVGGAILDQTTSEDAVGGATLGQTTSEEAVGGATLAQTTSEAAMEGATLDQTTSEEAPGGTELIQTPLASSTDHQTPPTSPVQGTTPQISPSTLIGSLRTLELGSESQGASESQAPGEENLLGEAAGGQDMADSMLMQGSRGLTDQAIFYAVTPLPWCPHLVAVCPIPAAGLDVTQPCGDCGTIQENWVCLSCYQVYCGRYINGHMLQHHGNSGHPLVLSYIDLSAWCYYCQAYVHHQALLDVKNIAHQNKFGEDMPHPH
# Description: Inhibition of HDAC6 assessed as blockade of decorboxylation of carboxyfluorescein labeled acetylated peptide substrate after 17 hrs
# BXPC-3 = test: cells; conditions: Homo sapiens, BXPC-3, 72 h
# HuP-T3 = test: cells; conditions: Homo sapiens, HuP-T3, 72 h
# MIA PaCa-2 = test: cells; conditions: Homo sapiens, MIA PaCa-2, 72 h
# cells [3] = conditions: Homo sapiens, Panc 04.03, 72 h
# cells [4] = conditions: Homo sapiens, SU.86.86, 72 h
# Histone deacetylase 3 = Histone deacetylase 3 (Homo sapiens, UniProt O15379)
# Chain of Histone deacetylase 3 (O15379 whole entry): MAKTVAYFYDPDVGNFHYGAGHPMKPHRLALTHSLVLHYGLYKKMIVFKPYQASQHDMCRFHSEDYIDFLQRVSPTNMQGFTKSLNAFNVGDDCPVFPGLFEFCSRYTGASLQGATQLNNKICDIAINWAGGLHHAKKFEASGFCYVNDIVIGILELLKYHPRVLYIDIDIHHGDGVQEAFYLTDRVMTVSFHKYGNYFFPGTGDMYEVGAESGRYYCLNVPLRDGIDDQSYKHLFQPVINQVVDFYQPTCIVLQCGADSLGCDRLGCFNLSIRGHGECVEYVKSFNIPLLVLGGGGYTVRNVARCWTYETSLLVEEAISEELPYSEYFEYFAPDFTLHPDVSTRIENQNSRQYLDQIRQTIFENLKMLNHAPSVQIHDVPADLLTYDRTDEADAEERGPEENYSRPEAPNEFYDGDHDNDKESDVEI
# Description: Inhibition of HDAC3 assessed as blockade of decorboxylation of carboxyfluorescein labeled acetylated peptide substrate after 17 hrs
# Chain of Histone deacetylase 1 (Q13547 whole entry): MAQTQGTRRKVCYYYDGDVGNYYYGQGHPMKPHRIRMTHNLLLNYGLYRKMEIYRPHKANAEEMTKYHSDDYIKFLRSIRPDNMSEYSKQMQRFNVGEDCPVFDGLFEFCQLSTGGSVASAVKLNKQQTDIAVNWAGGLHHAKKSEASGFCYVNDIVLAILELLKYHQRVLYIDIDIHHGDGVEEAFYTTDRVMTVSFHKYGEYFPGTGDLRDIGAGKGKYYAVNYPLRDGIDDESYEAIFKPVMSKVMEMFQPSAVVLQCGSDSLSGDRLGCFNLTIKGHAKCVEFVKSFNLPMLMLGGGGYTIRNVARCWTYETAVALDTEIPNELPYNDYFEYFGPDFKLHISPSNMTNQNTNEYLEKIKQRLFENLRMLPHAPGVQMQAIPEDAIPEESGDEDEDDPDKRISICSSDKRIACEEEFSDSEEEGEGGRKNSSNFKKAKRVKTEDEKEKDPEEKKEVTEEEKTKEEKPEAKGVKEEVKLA
# Chain of Histone deacetylase 2 (Q92769 whole entry): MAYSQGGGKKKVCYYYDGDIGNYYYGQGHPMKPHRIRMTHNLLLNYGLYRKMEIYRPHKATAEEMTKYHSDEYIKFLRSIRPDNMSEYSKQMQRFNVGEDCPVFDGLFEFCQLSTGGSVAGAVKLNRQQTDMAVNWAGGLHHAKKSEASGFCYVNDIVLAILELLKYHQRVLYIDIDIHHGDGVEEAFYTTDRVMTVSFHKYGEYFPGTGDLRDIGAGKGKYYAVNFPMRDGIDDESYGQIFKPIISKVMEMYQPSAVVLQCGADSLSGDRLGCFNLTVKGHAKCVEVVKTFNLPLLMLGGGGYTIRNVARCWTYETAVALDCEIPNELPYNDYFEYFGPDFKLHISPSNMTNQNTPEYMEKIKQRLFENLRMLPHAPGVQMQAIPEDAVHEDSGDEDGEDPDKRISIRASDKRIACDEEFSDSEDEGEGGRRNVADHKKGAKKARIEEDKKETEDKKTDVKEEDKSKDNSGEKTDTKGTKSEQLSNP
SMILES,IC50 (Histone deacetylase 2) [µM],IC50 (Histone deacetylase 1) [µM],IC50 (Histone deacetylase 8) [µM],IC50 [1] [µM],IC50 [2] [µM],IC50 (BXPC-3) [µM],IC50 (HuP-T3) [µM],IC50 (MIA PaCa-2) [µM],IC50 (cells [3]) [µM],IC50 (cells [4]) [µM],IC50 (Histone deacetylase 3) [µM]
O=C(CCCCCCC(=O)Nc1cccc(-c2cn(-c3ccc(I)cc3)nn2)c1)NO,0.0246,0.008,> 30,0.0107,0.0022,1.1,1.4,2.33,2.34,7.7,
O=C(CCCCCCC(=O)Nc1cccc(-n2cc(C3CCCCC3)nn2)c1)NO,0.0482,0.0121,2.75,0.0166,0.0043,2,0.4,0.1,0.5,0.9,0.0053
O=C(CCCCCCC(=O)Nc1cccc(-c2cn(-c3cc(CO)cc(CO)c3)nn2)c1)NO,0.0278,0.0057,1.32,0.0058,0.0019,,,,,,
O=C(CCCCCCC(=O)Nc1cccc(-c2cn(C3CCCCC3)nn2)c1)NO,0.0275,0.0086,1.19,0.0098,0.0033,4,0.4,0.1,0.5,0.1,0.0037
O=C(CCCCCCC(=O)Nc1cccc(-c2cn(-c3ccccc3)nn2)c1)NO,,,,,,,,,< 0.5,,

# Second part, led by results:
IC50 (Histone deacetylase 2) [µM],IC50 (Histone deacetylase 1) [µM],IC50 (Histone deacetylase 8) [µM],IC50 [1] [µM],IC50 [2] [µM],SMILES,IC50 (BXPC-3) [µM],IC50 (HuP-T3) [µM],IC50 (MIA PaCa-2) [µM],IC50 (cells [3]) [µM],IC50 (cells [4]) [µM],IC50 (Histone deacetylase 3) [µM]
,0.0053,,,,O=C(CCCCCCC(=O)Nc1cccc(-c2cn(-c3cc(F)cc(F)c3)nn2)c1)NO,,,,,,
0.0285,0.0087,5.22,0.0145,0.0029,O=C(CCCCCCC(=O)Nc1cccc(-c2cn(-c3ccc(C(F)(F)F)cc3)nn2)c1)NO,,,,,,
0.0251,0.0046,4.18,0.0068,0.0031,O=C(CCCCCCC(=O)Nc1cccc(-n2cc(-c3ccccc3)nn2)c1)NO,,,,,,
,,> 30,> 30,> 30,Nc1ccccc1NC(=O)CCCCCCC(=O)Nc1cccc(-n2cc(-c3ccccc3)nn2)c1,> 50,> 50,> 50,> 50,32,0.122
0.06,0.0319,12,0.0328,0.0084,O=C(CCCCCCC(=O)Nc1cccc(-c2cn(-c3ccc(F)cc3)nn2)c1)NO,,,,,,
